Assay [1] deals with Wnt activity (SW480 colon carcinoma cells stably expressing the Sp5-Luc reporter gene). As to the kind of experiment: Wnt activity screening assay (Sp5-Luc reporter gene assay). The assay is classed as cell-based, human. Particulars: Homo sapiens; for EC50: 36 to 48 hours; for inhibition at 10 µM: read-out: percent inhibition at 10 μM (given for EC50 >10 μM), 10 μM. A digest of the protocol: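 EC50 values come from a variable-slope four-parameter fit of luminescence normalized to DMSO-only wells. The read-out follows 36–48 h incubation at 37 °C, 5% CO2, in DMEM containing 1% fetal bovine serum. Cells are hygromycin-selected SW480 stably expressing firefly luciferase under a Wnt-responsive Sp5 promoter (eight TCF/LEF sites).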

The target in assay [2] is recombinant GSK3β kinase (Homo sapiens (Human), UniProt P49841). Put plainly: GSK3β kinase assay (Ser/Thr 09 peptide Z-lyte, FRET).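 Also: FRET read-out as coumarin over fluorescein emission ratio, compounds incubated one hour at room temperature, IC50 from dose-response curve fit.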 Format: biochemical.
recombinant GSK3β kinase, sequence (P49841 whole entry): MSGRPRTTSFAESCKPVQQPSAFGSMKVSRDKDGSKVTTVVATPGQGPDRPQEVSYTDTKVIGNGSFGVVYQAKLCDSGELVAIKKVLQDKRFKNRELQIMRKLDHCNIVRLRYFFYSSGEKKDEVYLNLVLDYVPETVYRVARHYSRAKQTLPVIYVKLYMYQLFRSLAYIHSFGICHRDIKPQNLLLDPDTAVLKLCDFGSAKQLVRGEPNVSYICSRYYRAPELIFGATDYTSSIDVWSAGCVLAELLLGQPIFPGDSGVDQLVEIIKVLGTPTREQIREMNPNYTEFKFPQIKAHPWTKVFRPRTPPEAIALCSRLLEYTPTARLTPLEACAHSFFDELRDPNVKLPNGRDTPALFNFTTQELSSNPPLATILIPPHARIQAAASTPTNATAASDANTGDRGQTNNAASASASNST
The test system of assay [3] is Tau phosphorylation at Ser396 (pSer396) in SH-SY5Y cells. As to the kind of experiment: Tau phosphorylation at Ser396 (pSer396) cell assay, ELISA/western blot. The assay is classed as cell-based, human. The following applies: Homo sapiens; SH-SY5Y cells, overnight (16-18 h); read-out: pSer396 Tau EC50. Here is the method: SH-SY5Y cells (human neuroblastoma) were cultured in DMEM/F-12 medium supplemented with 15% FBS, Non-essential Amino Acid and Penicillin/Streptomycin. Two days before treatment, cells were seeded onto 96 well plates at 5×10^4 cells/well.
The above synthesized compounds were screened using the cell assay procedure to assess decrease Tau phosphorylation at Ser396 (pSer396) described below.
DMSO-resuspended compounds were dispensed to 8 wells as a serial titration from 10 μM to 4.6 nM final in medium and cells were exposed overnight (16-18 h) in a humidified incubator at 36.6c before harvest.
Cells were lysed with RIPA buffer complemented with phosphatase and protease inhibitors then lysates were spun down at 12,000 g for 10 min to remove any cellular debris. Lysates are then either directly tested for pSer396 by ELISA (Life Technology, Kit KHB7031) or loaded on NuPage Bis-Tris gels for western blot analysis. Colorimetric detection of ELISA signal is performed by Cytation3 plate reader (Biotek) and the chemiluminescence signal for HRP-linked antibodies used in western blotting is detected using a Carestream Image Station. The same pSer396 antibody is used for detection of pTau in both assays.
Blot densitometry for pSer396 and β-actin were analyzed using ImageJ (NIH) and pSer396 Tau ELISA signal was used to plot, draw the curve fitting, and determine each compounds EC50 in Prism (GraphPad).
Background: ELISA stands for enzyme-linked immunosorbent assay.

The test system of assay [4] is SW480 colon carcinoma cells. As to the kind of experiment: Cell viability assay (CellTiter-Glo). The following applies: Homo sapiens; for EC50: 96 h, four days, CellTiter-Glo; for inhibition at 10 µM: read-out: percent inhibition at 10 μM (given for EC50 >10 μM), 10 μM. The assay is classed as cell-based, human.
Assay [5] relates to LL29 cells (primary human fibroblasts derived from IPF patients), α-smooth muscle actin. Put plainly: Inhibition of fibrotic process: TGF-β1-treated primary human fibroblasts, αSMA staining.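 As to all read-outs here: controls were TGF-β1-stimulated wells with DMSO vehicle as the positive reference and cells given DMSO alone as the negative reference.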 Format: cell-based. The following applies: Homo sapiens, Fibroblast; for EC50: 96 h, TGF-β1 20 ng/mL, 4 days, % cells positive for αSMA; for inhibition at 10 µM: read-out: percent inhibition at 10 μM (given for EC50 >10 μM), TGF-β1, αSMA, 10 μM.

For assay [6], the system named is IL-6 in human peripheral blood mononuclear cells (huPBMCs). As to the kind of experiment: IL-6 inhibition in LPS-stimulated human peripheral blood mononuclear cells (HTRF). The assay is classed as cell-based. Particulars: Homo sapiens, PBMC; for EC50: LPS 50 ng/mL, 22 hours, IL-6 HTRF; for inhibition at 10 µM: read-out: percent inhibition at 10 μM (given for EC50 >10 μM), LPS, IL-6, 10 μM. Put shortly:
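Compound-treated huPBMCs (1×10e6 cells/mL, 1% FBS-RPMI) were stimulated after 2 h with LPS (50 ng/mL) for another 22 h at 37° C. An anti-IL-6 HTRF pair reported IL-6 as the 665/620 nm ratio; activity relative to DMSO, EC50 by 4-parameter Levenberg-Marquardt fitting, duplicates.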

In assay [7] the target is recombinant DYRK1A kinase (Homo sapiens (Human), UniProt Q13627). As to the kind of experiment: DYRK1A kinase assay (Ser/Thr 18 peptide Z-lyte, FRET).
Assay [8] concerns secreted cytokines TNFα, IL-6 and KC-GRO in BV-2 cells (mouse microglial cells). As to the kind of experiment: Secreted cytokines in lipopolysaccharide-stimulated mouse glial cell line. Format: cell-based. The following applies: LPS 250 ng/mL 5 hours, table does not say which cytokine. Here is the method: Representative compounds were screened using the cell-based assay procedure for secreted cytokines in a Lipopolysaccharide-stimulated mouse glial cell line described below.
BV-2 cells (mouse microglial cells) were cultured in 1:1 DMEM medium supplemented with 10% FBS, and 1% penicillin/streptomycin.
BV-2 cells are plated at 35,000 cells/well in a volume of 100 μl for at least 4 hours before compounds are added. DMSO-resuspended compounds were first dispensed in a 96-well plate and serial diluted from 10 μM to 4.6 nM final concentration in medium. Compounds were added to cells overnight. 250 ng/mL of lipopolysaccharide (Escherichia coli O111:B4, SIGMA) was added for 5 hours. Supernatant is removed and saved for further cytokine detection. The original plates with seeded cells were tested for cytotoxicity by measure of adenosine triphosphate (ATP) release by adding CellTiter-Glo® diluted 1:4 in distilled water (G7573, Promega) and transferring lysed cells to a completely black 96-well plate to be read with the Cytation3. Supernatant was then diluted 1:2 with a diluent from V-PLEX cytokine Kit and directly tested for the secreted cytokines TNFα, IL-6 and KC-GRO using electrochemiluminescence (Meso Scale Discovery). The standard curve for each cytokine was used to convert the electrochemiluminescent signal into pg of protein per mL. The signal was used to plot, draw the curve fitting, and determine each compounds EC50 in Prism (GraphPad).

Assay [9] concerns pT212Tau in Dyrk1a- and MAPT-overexpressing HEK293T cells. As to the kind of experiment: Tau phosphorylation at Threonine 212 (pT212Tau) sandwich ELISA in double transfected cells. Particulars: Homo sapiens, HEK-293T, read-out: Thr212 EC50 (μM).
Setting [10] is: GSK3β kinase, head says EC50, method says IC50, ATP 46 μM.
Where [11] appears, read: DYRK1A kinase, head says EC50, method says IC50, ATP 30 μM.

The text below walks through data of patent US10653688B2, “6-(6-membered heteroaryl and aryl)isoquinolin-3-yl carboxamides and preparation and use thereof” (Samumed, LLC, priority 2017, dated 2020).

Read-outs that look alike come from different tables or passages of the source. Bounds are passed on as bounds.

Consider `CN1CCC(C(=O)Nc2cc3cc(-c4cncc(CO)c4)ccc3cn2)CC1` [Compound 31, N-(6-(5-(Hydroxymethyl)pyridin-3-yl)isoquinolin-3-yl)-1-methylpiperidine-4-carboxamide], for which the EC50 (in general, the midpoint of the concentration-response curve) in assay [1] is 862 nM; in assay [2] it was 698 nM; in assay [3], 9100 nM; in assay [4], 859 nM; in assay [5] it was 450 nM; in [6], 8940 nM. Also, in [7], the EC50 turned out to be 3 nM.
Turning to `Cc1ncc(-c2ccc3cnc(NC(=O)C4CCN(C)CC4)cc3c2)cn1` [Compound 63, 1-Methyl-N-(6-(2-methylpyrimidin-5-yl)isoquinolin-3-yl)piperidine-4-carboxamide], the EC50 in assay [1] was over 10000 nM; in [2] (setting [10]), over 10000 nM; in [3] it was over 10000 nM; in assay [4], over 10000 nM; in [5] it was 2390 nM; in assay [6], over 10000 nM. Also, in [7] (setting [11]), the EC50 came to 221 nM. Further, the inhibition (usually the change of the read-out against control, counted positive when it falls) at 10 µM in [1] is 9.9%; in assay [4], 7.4%; in [6] it was 7.9%.
Turning to `O=C(Nc1cc2cc(-c3cncc(OC4CCNCC4)c3)ccc2cn1)C1CC1` [Compound 55, N-(6-(5-(Piperidin-4-yloxy)pyridin-3-yl)isoquinolin-3-yl) cyclopropanecarboxamide], the EC50 stood at 698 nM in assay [1]; 1030 nM in [2] (setting [10]); 1100 nM in assay [3]; 1190 nM in assay [4]; 2060 nM in assay [5]; 3230 nM in assay [6]. The EC50 in assay [7] (setting [11]) was found to be 5 nM.
As to `CN1CCC(C(=O)Nc2cc3cc(-c4cnc(N)nc4)ccc3cn2)CC1` [Compound 65, N-(6-(2-Aminopyrimidin-5-yl)isoquinolin-3-yl)-1-methylpiperidine-4-carboxamide], the EC50 in [1] is over 10000 nM; in assay [2], 8970 nM; in assay [3] it was over 10000 nM; in assay [4], over 10000 nM; in assay [5] it was 2440 nM; in assay [6], over 10000 nM. Besides, in assay [7], the EC50 amounted to 48 nM. Moreover, the inhibition at 10 µM in assay [1] is 32.2%; in [4], 47.1%; in assay [6], 0%.
With `CN(C)[C@H]1CC[C@H](C(=O)Nc2cc3cc(-c4cnccn4)ccc3cn2)CC1` [Compound 70, trans-4-(dimethylamino)-N-(6-(pyrazin-2-yl)isoquinolin-3-yl)cyclohexane-1-carboxamide], the EC50 in [1] is over 10000 nM; in assay [2], 755 nM; in [3], 7800 nM; in assay [4] it was over 10000 nM; in [5], 634 nM; in [8], 57 nM. For the same compound, the EC50 in [6] turned out to be 9330 nM; in assay [7], 17 nM. Also, the inhibition at 10 µM is 31% in [1] and 35.3% in assay [4].
Turning to `O=C(Nc1cc2cc(-c3cncc(F)c3)ccc2cn1)[C@H]1C[C@H](N2CCOCC2)C1` [Compound 16, trans-N-(6-(5-Fluoropyridin-3-yl)isoquinolin-3-yl)-3-morpholinocyclobutane-1-carboxamide], the EC50 was over 10000 nM in assay [1]; 256 nM in [2] (setting [10]); 2600 nM in assay [3]; over 10000 nM in assay [4]; over 10000 nM in assay [5]; over 10000 nM in [6]. Besides, the EC50 in assay [7] (setting [11]) came to 8 nM; in assay [9], 0.046 µM. The inhibition at 10 µM stood at 24.9% in [1], 15.5% in assay [4], 6.7% in [5] and 43.1% in [6].
Regarding `CNC(=O)c1cncc(-c2ccc3cnc(NC(=O)C4CCN(C)CC4)cc3c2)c1` [Compound 58, N-Methyl-5-(3-(1-methylpiperidine-4-carboxamido)isoquinolin-6-yl) nicotinamide], the EC50 in assay [1] is over 10000 nM; in assay [2] (setting [10]), 1970 nM; in assay [3], over 10000 nM; in assay [4] it was over 10000 nM; in assay [5], over 10000 nM; in assay [6] it was 9660 nM. Moreover, the EC50 in assay [7] (setting [11]) was 9 nM. Also, the values for the inhibition at 10 µM in [1], in assay [4] and in assay [5] were 43.7%, 30.9% and 44.6%, respectively.
On to `O=C(Nc1cc2cc(-c3cncc(OCC4CNC4)n3)ccc2cn1)c1ccc(F)cc1` [Compound 124, N-(6-(6-(azetidin-3-ylmethoxy)pyrazin-2-yl)isoquinolin-3-yl)-4-fluorobenzamide], for which the EC50 was 1060 nM in assay [1]; 180 nM in assay [2] (setting [10]); 807 nM in assay [3]; 2420 nM in assay [4]; over 10000 nM in assay [5]; 2090 nM in assay [6]. In addition, the EC50 in assay [7] (setting [11]) turned out to be 6 nM. Besides, in assay [5], the inhibition at 10 µM is 5.2%.
Turning to `O=C(Nc1cc2cc(-c3cnccn3)ccc2cn1)c1ccc(CN2CCOCC2)cc1` [Compound 83, 4-(Morpholinomethyl)-N-(6-(pyrazin-2-yl)isoquinolin-3-yl)benzamide], the EC50 is 3510 nM in assay [1]; over 10000 nM in assay [2] (setting [10]); over 10000 nM in assay [3]; 6760 nM in [4]; over 10000 nM in [5]; over 10000 nM in [6]. Moreover, the EC50 in [7] (setting [11]) is 9 nM. In addition, the values for the inhibition at 10 µM in assay [5] and in assay [6] were 29.6% and 5%, respectively.
